The numbers were not newly measured in patent publication EP4613273A1, “TREATMENT OF BONE LOSS” (priority 2024, dated 2025), which cites them from elsewhere.

For the data set, the target named is T1, cathepsin K (Homo sapiens, UniProt P43235).
T1 construct: host or cells: patients with postmenopausal osteoporosis (endogenous enzyme)
T1 sequence (P43235 115-329): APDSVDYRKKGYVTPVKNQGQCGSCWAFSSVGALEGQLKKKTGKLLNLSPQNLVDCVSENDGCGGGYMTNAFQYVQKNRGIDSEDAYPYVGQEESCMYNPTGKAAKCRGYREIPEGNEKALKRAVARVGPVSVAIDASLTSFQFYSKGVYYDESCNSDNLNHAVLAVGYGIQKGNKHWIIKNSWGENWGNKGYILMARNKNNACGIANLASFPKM
Conditions: cited from earlier work.

With `CC(C)(F)C[C@H](N[C@@H](c1ccc(-c2ccc(S(C)(=O)=O)cc2)cc1)C(F)(F)F)C(=O)NC1(C#N)CC1` [Odanacatib], the “adverse effects leading to termination of development” value is “cardio-cerebrovascular adverse effects”.
